Reference: PubChem BioAssay AID1963867 (Molecular Pharmacology Branch, DTP, NCI, 2024)

Test system: KRAS-mutant PDC tumor spheroid with HUVEC/MSC, viability
Experiment: Anticancer human tumor 327498-153-R-J2-PDC patient-derived uterine carcinosarcoma cell line growth inhibition [KRAS2]
Conditions: for IC50: curve of first compound; for viability, T/C: stronger effect = lower value
Outline: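 KRAS-mutant tumor cells were grown as spheroids with HUVEC endothelial cells and human MSCs as stroma. Targeted agents were tested alone and with KRAS pathway inhibitors. Doses started at or near clinical Cmax, or 10 microM, descending half-log.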

[1] = second compound 0.1 µM, first compound 0.0316 µM
[2] = second compound 0.1 µM, first compound 0.1 µM
[3] = second compound 0.316 µM, first compound 0.0316 µM
[4] = second compound 0.316 µM, first compound 0.1 µM
[5] = second compound 1 µM, first compound 0.0316 µM
[6] = second compound 1 µM, first compound 0.1 µM
[7] = second compound 3.16 µM, first compound 0.0316 µM
[8] = second compound 3.16 µM, first compound 0.1 µM
[9] = second compound 10 µM, first compound 0.0316 µM
[10] = second compound 10 µM, first compound 0.1 µM
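Also: spheroids exposed to agents for seven days before reading.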
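For viability, T/C in this document: 100% = DMSO vehicle wells so lower means fewer viable cells.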

## COC(=O)c1ccc2c(C(=Nc3ccc(N(C)C(=O)CN4CCN(C)CC4)cc3)c3ccccc3)c(O)[nH]c2c1 + COc1cc2nc(C)nc(NC(C)c3cc(N)cc(C(F)(F)F)c3)c2cc1OC1CCOC1
Second compound 0.1 µM
  IC50: 2160 nM
Second compound 0.316 µM
  IC50: 490 nM
Second compound 1 µM
  IC50: 648 nM
Second compound 3.16 µM
  IC50: 585 nM
Second compound 10 µM
  IC50: 280 nM
[1]
  viability, T/C: 94.6%
[2]
  viability, T/C: 77.2%
Second compound 0.1 µM, first compound 0.316 µM
  viability, T/C: 72.2%
Second compound 0.1 µM, first compound 1 µM
  viability, T/C: 83.7%
Second compound 0.1 µM, first compound 3.16 µM
  viability, T/C: 33.9%
Second compound 0.1 µM, first compound 10 µM
  viability, T/C: 34.5%
[3]
  viability, T/C: 73%
[4]
  viability, T/C: 65.1%
Second compound 0.316 µM, first compound 0.316 µM
  viability, T/C: 57%
Second compound 0.316 µM, first compound 1 µM
  viability, T/C: 40.4%
Second compound 0.316 µM, first compound 3.16 µM
  viability, T/C: 29%
Second compound 0.316 µM, first compound 10 µM
  viability, T/C: 24.8%
[5]
  viability, T/C: 62%
[6]
  viability, T/C: 59%
Second compound 1 µM, first compound 0.316 µM
  viability, T/C: 64.3%
Second compound 1 µM, first compound 1 µM
  viability, T/C: 42.9%
Second compound 1 µM, first compound 3.16 µM
  viability, T/C: 25.5%
Second compound 1 µM, first compound 10 µM
  viability, T/C: 20.4%
[7]
  viability, T/C: 69.5%
[8]
  viability, T/C: 69.6%
Second compound 3.16 µM, first compound 0.316 µM
  viability, T/C: 60.9%
Second compound 3.16 µM, first compound 1 µM
  viability, T/C: 39.3%
Second compound 3.16 µM, first compound 3.16 µM
  viability, T/C: 19.9%
Second compound 3.16 µM, first compound 10 µM
  viability, T/C: 0.17%
[9]
  viability, T/C: 54.2%
[10]
  viability, T/C: 58.9%
Second compound 10 µM, first compound 0.316 µM
  viability, T/C: 47.1%
Second compound 10 µM, first compound 1 µM
  viability, T/C: 27.2%
Second compound 10 µM, first compound 3.16 µM
  viability, T/C: 2.2%
Second compound 10 µM, first compound 10 µM
  viability, T/C: 0.22%

## Cn1ncnc1[C@H]1c2n[nH]c(=O)c3cc(F)cc(c23)N[C@@H]1c1ccc(F)cc1 + CNCc1ccccc1-c1csc(C(C)Nc2nc(C)nc3cc(OC)c(OC)cc23)c1
Second compound 0.1 µM
  IC50: 18.4 nM
Second compound 0.316 µM
  IC50: 10.7 nM
Second compound 1 µM
  IC50: 5.81 nM
Second compound 3.16 µM
  IC50: < 0.316 nM
Second compound 10 µM
  IC50: < 0.316 nM
Second compound 0.1 µM, first compound 0.000316 µM
  viability, T/C: 84%
Second compound 0.1 µM, first compound 0.001 µM
  viability, T/C: 81.7%
Second compound 0.1 µM, first compound 0.00316 µM
  viability, T/C: 81.6%
Second compound 0.1 µM, first compound 0.01 µM
  viability, T/C: 62.9%
[1]
  viability, T/C: 38%
[2]
  viability, T/C: 19.7%
Second compound 0.316 µM, first compound 0.000316 µM
  viability, T/C: 72.8%
Second compound 0.316 µM, first compound 0.001 µM
  viability, T/C: 70.2%
Second compound 0.316 µM, first compound 0.00316 µM
  viability, T/C: 61.7%
Second compound 0.316 µM, first compound 0.01 µM
  viability, T/C: 54.4%
[3]
  viability, T/C: 28.2%
[4]
  viability, T/C: 19.9%
Second compound 1 µM, first compound 0.000316 µM
  viability, T/C: 63.2%
Second compound 1 µM, first compound 0.001 µM
  viability, T/C: 68.8%
Second compound 1 µM, first compound 0.00316 µM
  viability, T/C: 53.7%
Second compound 1 µM, first compound 0.01 µM
  viability, T/C: 44.5%
[5]
  viability, T/C: 30.9%
[6]
  viability, T/C: 21.7%
Second compound 3.16 µM, first compound 0.000316 µM
  viability, T/C: 0.09%
Second compound 3.16 µM, first compound 0.001 µM
  viability, T/C: 0.09%
Second compound 3.16 µM, first compound 0.00316 µM
  viability, T/C: 0.1%
Second compound 3.16 µM, first compound 0.01 µM
  viability, T/C: 0.07%
[7]
  viability, T/C: 0.06%
[8]
  viability, T/C: 0.15%
Second compound 10 µM, first compound 0.000316 µM
  viability, T/C: 0.12%
Second compound 10 µM, first compound 0.001 µM
  viability, T/C: 0.11%
Second compound 10 µM, first compound 0.00316 µM
  viability, T/C: 0.12%
Second compound 10 µM, first compound 0.01 µM
  viability, T/C: 0.12%
[9]
  viability, T/C: 0.16%
[10]
  viability, T/C: 0.34%
